The NIST ThermoML archive (doi:10.1021/acs.jced.6b00169)
“And” between values parts separate entries of the source, which are not always exact repeats. Identical values can stand only once.

Conditions: for vapor or sublimation pressure: Liquid, Closed cell (Static) method; for mass density: Fluid (supercritical or subcritical phases), isochoric method

FC(F)(F)/C=C\C(F)(F)F [(Z)-1,1,1,4,4,4-hexafluorobut-2-ene]
Conditions | vapor or sublimation pressure
323.47 K | 182.2 kPa
323.49 K | 177.9 kPa
323.5 K | 180.6 kPa [middle of 4 runs]
323.51 K | 181.2 kPa [middle of 7 runs]
323.52 K | 180.2 kPa [middle of 5 runs]
323.53 K | 182.1 kPa and 186.3 kPa
333.44 K | 247.7 kPa
333.45 K | 248.1 kPa
333.46 K | 243.8 kPa
333.47 K | 247.2 kPa and 243.5 kPa
333.48 K | 246.1 kPa and 248.3 kPa
333.49 K | 247.6 kPa [middle of 9 runs]
333.5 K | 254.8 kPa
343.45 K | 331.8 kPa
343.46 K | 331.6 kPa
343.48 K | 331.2 kPa [middle of 6 runs]
343.49 K | 330.6 kPa [middle of 7 runs]
343.5 K | 343.2 kPa and 336.4 kPa and 331.7 kPa
353.46 K | 435.3 kPa
353.47 K | 435.3 kPa
353.48 K | 435.2 kPa and 429.9 kPa and 430.2 kPa
353.49 K | 435.2 kPa [middle of 5 runs]
353.5 K | 434.6 kPa [middle of 4 runs]
363.46 K | 562 kPa and 561.7 kPa
363.47 K | 555.8 kPa and 556.4 kPa
363.48 K | 562.1 kPa [middle of 4 runs]
363.49 K | 562.2 kPa [middle of 5 runs]
363.5 K | 567.8 kPa and 559.4 kPa
373.45 K | 714 kPa
373.47 K | 714.4 kPa [middle of 4 runs]
373.48 K | 731.7 kPa and 715.2 kPa
373.49 K | 713.5 kPa [middle of 5 runs]
373.5 K | 716.9 kPa [middle of 4 runs]
383.45 K | 895.1 kPa
383.46 K | 888.7 kPa
383.47 K | 896.6 kPa and 889.9 kPa and 895.9 kPa
383.48 K | 896.5 kPa and 895.3 kPa
383.49 K | 893.4 kPa [middle of 6 runs]
383.5 K | 921.5 kPa and 896.4 kPa
393.47 K | 1103.1 kPa and 1109.7 kPa
393.48 K | 1112.1 kPa and 1110.3 kPa
393.49 K | 1109.6 kPa [middle of 4 runs]
393.5 K | 1111.5 kPa [middle of 4 runs]
393.51 K | 1113.3 kPa and 1107 kPa
403.41 K | 1365.2 kPa
403.47 K | 1361.3 kPa
403.48 K | 1355 kPa
403.49 K | 1364.2 kPa [middle of 4 runs]
403.5 K | 1358.5 kPa and 1362.4 kPa
403.51 K | 1363.4 kPa and 1358.6 kPa and 1364.3 kPa
413.47 K | 1648.2 kPa and 1655.1 kPa
413.49 K | 1657.8 kPa [middle of 4 runs]
413.5 K | 1651.9 kPa
413.51 K | 1658.4 kPa [middle of 4 runs]
423.47 K | 1995.7 kPa
423.48 K | 2000.2 kPa and 1989.3 kPa
423.49 K | 2000.4 kPa and 1992.9 kPa and 1997.8 kPa
423.5 K | 1990 kPa and 1999.2 kPa
423.51 K | 1999.9 kPa and 1993.1 kPa and 1999.7 kPa
433.46 K | 2391.8 kPa
433.47 K | 2384.5 kPa
433.49 K | 2396.8 kPa and 2389.4 kPa and 2393.9 kPa
433.5 K | 2385.2 kPa and 2388.6 kPa
433.51 K | 2396.2 kPa
433.52 K | 2395.9 kPa
443.45 K | 2854.5 kPa
443.47 K | 2837.9 kPa
443.5 K | 2847.4 kPa and 2860.1 kPa
443.51 K | 2859.8 kPa and 2850.8 kPa

Conditions | mass density [kg/m3]
333.47 K, 5013.6 kPa | 1294.9
333.49 K, 4294.8 kPa | 1291.4
343.5 K, 9927.3 kPa | 1290.8
353.5 K, 1179.2 kPa | 1214.2
363.49 K, 3108.6 kPa | 1196.7
363.5 K, 5627.6 kPa | 1213.6
373.49 K, 7319.3 kPa | 1196.2
383.48 K, 2373.8 kPa | 1121.1
393.48 K, 5697.9 kPa | 1120.5
393.51 K, 1151.8 kPa | 1038.9
403.48 K, 1382.1 kPa | 964.9
403.49 K, 1273.1 kPa | 87.8
403.5 K, 9039.9 kPa | 1120
403.51 K, 2538.6 kPa | 1038.4
413.48 K, 1705.4 kPa | 964.4
413.49 K, 1667.6 kPa | 884.8
413.5 K, 1339.2 kPa | 87.8
413.51 K, 5100.3 kPa | 1037.9
423.48 K, 3720.9 kPa | 964
423.49 K, 2049.1 kPa | 884.4
423.5 K, 1403.2 kPa | 87.7
423.51 K, 7690 kPa | 1037.4
433.47 K, 2440.9 kPa | 790.6
433.49 K, 1466 kPa | 87.7
433.49 K, 3342.9 kPa | 883.9
433.49 K, 5765 kPa | 963.5
433.5 K, 2159.2 kPa | 167.2
443.48 K, 2727.2 kPa | 261.3
443.48 K, 3403.1 kPa | 790.2
443.49 K, 2855.8 kPa | 451.8
443.49 K, 2856.2 kPa | 410.2
443.49 K, 2906.1 kPa | 659.8
443.49 K, 4930.5 kPa | 883.5
443.5 K, 1526.7 kPa | 87.6
443.5 K, 2301.4 kPa | 167.1
443.5 K, 2856.5 kPa | 556.1
443.5 K, 2857 kPa | 496.8
443.5 K, 3041.4 kPa | 734.7
443.5 K, 7837.5 kPa | 963.1
443.51 K, 2855.3 kPa | 532.1
443.51 K, 2860.2 kPa | 589.2
444.48 K, 2904 kPa | 410.2
444.48 K, 2905.8 kPa | 451.8
444.49 K, 2907.9 kPa | 496.8
444.49 K, 2909.6 kPa | 556.1
444.5 K, 2907.5 kPa | 532.1
444.5 K, 2918.3 kPa | 589.2
445.48 K, 2948.7 kPa | 410.1
445.48 K, 2955 kPa | 451.8
445.49 K, 2960.5 kPa | 496.8
445.49 K, 2967.6 kPa | 556.1
445.49 K, 2979 kPa | 589.2
445.5 K, 2963.5 kPa | 532.1
446.47 K, 2992.8 kPa | 410.1
446.47 K, 3039.9 kPa | 589.2
446.48 K, 3003.8 kPa | 451.8
446.49 K, 3019.2 kPa | 532.1
446.49 K, 3024.7 kPa | 556
446.5 K, 3013.3 kPa | 496.8
447.47 K, 3036.6 kPa | 410.1
447.49 K, 3052.3 kPa | 451.8
447.49 K, 3075.5 kPa | 532
447.49 K, 3102.7 kPa | 589.1
447.5 K, 3083 kPa | 556
447.51 K, 3065.9 kPa | 496.8
448.47 K, 3080.1 kPa | 410.1
448.48 K, 3099.7 kPa | 451.7
448.49 K, 3131.1 kPa | 532
448.49 K, 3165.1 kPa | 589.1
448.5 K, 3117.9 kPa | 496.7
448.5 K, 3140.9 kPa | 556
449.46 K, 3123.1 kPa | 410.1
449.48 K, 3147.7 kPa | 451.7
449.49 K, 3187.7 kPa | 532
449.5 K, 3170.6 kPa | 496.7
449.5 K, 3200.1 kPa | 556
449.5 K, 3229.7 kPa | 589.1
450.46 K, 3166.1 kPa | 410
450.48 K, 3195.5 kPa | 451.7
450.5 K, 3223.3 kPa | 496.7
450.5 K, 3259.2 kPa | 555.9
450.5 K, 3293.6 kPa | 589
450.51 K, 3244.9 kPa | 532
451.47 K, 3209.5 kPa | 410
451.48 K, 3243 kPa | 451.7
451.49 K, 3357.7 kPa | 589
451.5 K, 3275.9 kPa | 496.7
451.5 K, 3318.3 kPa | 555.9
451.51 K, 3300.8 kPa | 531.9
452.47 K, 3252.2 kPa | 410
452.48 K, 3290.8 kPa | 451.7
452.49 K, 3328.2 kPa | 496.6
452.49 K, 3378.2 kPa | 555.9
452.49 K, 3422.9 kPa | 589
452.5 K, 3358.3 kPa | 531.9
453.47 K, 3294.8 kPa | 410
453.48 K, 3200.2 kPa | 348.3
453.49 K, 3338.4 kPa | 451.6
453.49 K, 3381.2 kPa | 496.6
453.49 K, 4021.4 kPa | 734.4
453.49 K, 9923.8 kPa | 962.6
453.5 K, 1586.1 kPa | 87.6
453.5 K, 2978.8 kPa | 261.1
453.5 K, 3415.5 kPa | 531.9
453.5 K, 3438.5 kPa | 555.9
453.5 K, 3477.4 kPa | 589
453.5 K, 3489.4 kPa | 589
453.5 K, 3654.8 kPa | 659.5
453.5 K, 4584 kPa | 789.8
453.5 K, 6552.2 kPa | 883.1
453.51 K, 2439 kPa | 167
453.51 K, 3355.4 kPa | 473.8
453.51 K, 3423.1 kPa | 534.1
453.52 K, 3308.4 kPa | 416.3
463.47 K, 3811.6 kPa | 451.7
463.48 K, 3548.1 kPa | 348.1
463.49 K, 5796.3 kPa | 789.4
463.5 K, 1644.5 kPa | 87.5
463.5 K, 3221.4 kPa | 261
463.5 K, 4145.4 kPa | 588.7
463.5 K, 4465.6 kPa | 659.2
463.5 K, 8195.5 kPa | 882.7
463.51 K, 2573 kPa | 166.9
463.51 K, 3856.7 kPa | 473.6
463.51 K, 4003.3 kPa | 533.8
463.52 K, 3741 kPa | 416.1
463.84 K, 5039.9 kPa | 734
473.46 K, 4282.9 kPa | 451.5
473.49 K, 3889.2 kPa | 347.9
473.49 K, 5297.9 kPa | 658.9
473.49 K, 6084.9 kPa | 733.7
473.49 K, 7031.2 kPa | 789.1
473.5 K, 1702.6 kPa | 87.5
473.5 K, 3458.3 kPa | 260.9
473.5 K, 4828.4 kPa | 588.4
473.5 K, 9855 kPa | 882.3
473.51 K, 2705 kPa | 166.8
473.51 K, 4169.1 kPa | 416
473.51 K, 4592.6 kPa | 533.6
473.52 K, 4360 kPa | 473.3
483.45 K, 4753 kPa | 451.3
483.48 K, 8280.1 kPa | 788.7
483.49 K, 4225.7 kPa | 347.8
483.49 K, 6143.2 kPa | 658.6
483.5 K, 1760.4 kPa | 87.5
483.5 K, 3690.6 kPa | 260.8
483.5 K, 4863.2 kPa | 473.1
483.5 K, 5186.3 kPa | 533.3
483.5 K, 5522.5 kPa | 588.1
483.51 K, 2834.3 kPa | 166.8
483.51 K, 4596.7 kPa | 415.8
483.51 K, 7145.4 kPa | 733.3
493.49 K, 4559.3 kPa | 347.6
493.5 K, 3920 kPa | 260.6
493.5 K, 6223.9 kPa | 587.8
493.51 K, 1817.2 kPa | 87.4
493.51 K, 2962 kPa | 166.7
493.51 K, 5368 kPa | 472.9
503.5 K, 4890.2 kPa | 347.4
503.51 K, 6930.9 kPa | 587.6
